Laboratory results reported in patent US20220202739A1, “ENDOCANNABINOID MIMETIC AND ANTI-INFLAMMATORY COMPOUND CONTAINING COMPOSITIONS, METHODS OF PREPARATION AND USES THEREOF” (priority 2019, published 2022).

The compounds below were run on MMP1 (assay: Gene expression custom microarray, pooled keratinocyte line (Example 3): MMP1). Settings: pooled keratinocytes, 20 ppm, 24 hr.
Type: cell-based, human
Procedure: Cell cultures: Received and began culture of pooled keratinocyte line from Promocell (C-12006; Lot #448Z026). Cells were seeded into a 75 cm2 flask and 2 6 well dishes for expansion and exposure per manufacturer's protocol using Keratinocyte Growth Medium (C2011B), Keratinocyte Supplement Mix (C39016) and CaCl (C34005). 2 ml of prepared solution were added to each of the 6 wells and 7 ml was added to the 75 cm2 flask.
Experimental phase: When the appropriate quantity of cells were grown, they were detached as described above, but at the final step were seeded into each well of one or more 6 well dishes. Each well received 2 ml of the cells suspended in suspension so they were seeded equally. The dishes were returned to the incubator until 85-95% confluency is reached.
It was at this stage that all wells were rinsed in PBS after aspirating the growth media. The compound(s) to be tested were previously mixed into a suitable solvent (e.g., DMSO or ethanol) that can be diluted to the desired concentration of test compound (10 μl) in the culture wells without exceeding maximum solvent concentrations and adversely effecting cell viability, and mixed with Basal Keratinocyte Media. NOTE: Standard maximum levels of solvent are 0.1% for DMSO and 0.5% for ETOH. The concentration for each tested compound/natural extract is generally listed in the left-hand column of Table 4. For certain compositions (e.g., compositions 15 and 16), other concentrations were used and are noted in the body of Table 4.
Every 2 wells on the 6 well plate served as a biological replicate for the purposes of RNA isolation and genetic expression evaluations making each 6 well dish an n=3 for the test compound contained in the media. […]
At the end of the 24 hr time period, the plates were removed from the incubator, the test media aspirated, and the cells rinsed with PBS. […] Allow 1 minute for saturation of the membrane and then centrifuge for 2 minutes to complete the RNA elution. • Quantify the quantity of RNA and store at −20 C° until use (no more than 1 month) […]

Row | SMILES | ↓MMP1 gene expression, fold increase or decrease vs untreated cells [fold]
1 | C=C(C)[C@@H]1CCC(C)=C[C@H]1c1c(O)cc(CCCCC)cc1O [CBD, cannabidiol, reference compound] | 6.5
2 | CCCCCCCCCCCCCCCC(=O)NCCO [N-palmitoylethanolamide] | 12.2
3 | CC(C)[C@]12O[C@H]1[C@@H]1O[C@]13[C@]1(O[C@H]1C[C@H]1C4=C(CC[C@@]13C)C(=O)OC4)[C@@H]2O [Triptolide] | 1.2
